Laboratory results published in patent US7803930B2, “Antisense modulation of apolipoprotein B-expression” (Isis Pharmaceuticals, Inc., priority 2002, dated 2010).
In the oligonucleotide strings, read from the 5' end, every base follows the letter of its sugar. An asterisk marks phosphorothioate; unmarked linkages are phosphodiester. Other units and linkages are bracketed, terminal groups are in braces. A string of capitals states the bases alone. e = 2'-O-(2-methoxyethyl) (MOE); [5mC] = 5-methylcytosine; d = 2'-deoxy (DNA); r = 2'-OH (RNA)

Assays:
[1] = tested on: human apolipoprotein B mRNA; experiment: Inhibition of apolipoprotein B mRNA by dsRNAs in HepG2 cells; type: cell-based; details: 150 nM with 3.75 μg/mL LIPOFECTIN
Experimental: In accordance with the present invention, a series of nucleic acid duplexes comprising the antisense compounds of the present invention and their complements were designed to target apolipoprotein B and are shown in Table 42. All compounds in Table 42 are oligoribonucleotides 20 nucleotides in length with phosphodiester internucleoside linkages (backbones) throughout the compound. The compounds were prepared with blunt ends. […] These sequences are shown to contain uracil (U) but one of skill in the art will appreciate that uracil (U) is generally replaced by thymine (T) in DNA sequences. “Targer site” indicates the first (5′-most) nucleotide number on the particular target sequence to which the compound binds. A subset of the compounds in Table 42 are the RNA equivalents of DNA antisense oligonucleotides described herein, and, where applicable, this is noted by the ISIS # of the DNA oligonucleotide in the column “RNA equivalent of ISIS #”.
The dsRNA compounds in Table 42 were tested for their effects on human apolipoprotein mRNA in HepG2 cells. HepG2 cells were treated with 100 nM of dsRNA compounds mixed with 5 μg/mL LIPOFECTIN (Invitrogen Corporation, Carlsbad, Calif.) for a period of 16 hours. In the same experiment, HepG2 cells were also treated with 150 nM of subset of the antisense oligonucleotides described herein mixed with 3.75 μg/mL LIPOFECTIN; these compounds are listed in Table 43. Control oligonucleotides included ISIS 18078 ([…], SEQ ID NO: 888). ISIS 18078 is a chimeric oligonucleotide (“gapmer”) 20 nucleotides in length, composed of a central “gap” region consisting of 9 2′-deoxynucleotides, which is flanked on the 5′ and 3′ ends by a five-nucleotide “wing” and a six-nucleotide “wing”, respectively. The wings are composed of 2′-methoxyethyl (2′-MOE)nucleotides. The internucleoside (backbone) linkages are phosphorothioate (P═S) throughout the oligonucleotide. All cytidines are 5-methylcytidines. The duplex of ISIS 263188 ([…], SEQ ID NO: 889) and its complement was also used as a control. ISIS 263188 is an oligoribonucleotide 21 nucleotides in length with the 2 nucleotides on the 3′ end being oligodeoxyribonucleotides (TT) and with phosphodiester internucleoside linkages (backbones) throughout the compound.
Cells were treated for 4 hours, after which human apolipoprotein B mRNA expression was measured as described by examples herein. Results were normalized to untreated control cells, which were not treated with LIPOFECTIN or oligonucleotide.

[2] = tested on: human apolipoprotein B mRNA; experiment: Inhibition of human apolipoprotein B mRNA levels in HepG2 cells, quantitative real-time PCR; type: cell-based; details: for % INHIB (inhibition of human apolipoprotein B mRNA levels): HepG2 cells treated with 150 nM of compound, averages from two experiments, quantitative real-time PCR; for % inhibition 37 nM / % inhibition 75 nM / % inhibition 150 nM / % inhibition 300 nM: Table 19 dose response, HepG2 cells, normalized to untreated control
How it was run: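 HepG2 cells at 80% confluency were transfected with antisense oligonucleotide using 3.75 μg/mL Lipofectin in Opti-MEM for 4-7 h and harvested 16-24 h after treatment. Apolipoprotein B mRNA was measured by real-time RT-PCR and normalized to GAPDH or RiboGreen total RNA. Percent inhibition came from untreated-control standard curves.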

Substance	% Inhibition of apolipoprotein B mRNA [1] [%]	% INHIB (inhibition of human apolipoprotein B mRNA levels) [2] [%]	% inhibition 37 nM [2] [%]	% inhibition 75 nM [2] [%]	% inhibition 150 nM [2] [%]	% inhibition 300 nM [2] [%]
18078 (antisense eG*eT*eG*e[5mC]*eG*d[5mC]*dG*d[5mC]*dG*dA*dG*d[5mC]*d[5mC]*d[5mC]*eG*eA*eA*eA*eT*e[5mC]) [compound 18078]	13					
263188 (rCrUrUrCrUrGrGrCrArUrCrCrGrGrUrUrUrArGdTdT; siRNA) [compound 263188]	26					
301014 (e[5mC]*eA*eG*e[5mC]*e[5mC]*d[5mC]*d[5mC]*dG*d[5mC]*dA*dG*dG*dT*d[5mC]*d[5mC]*e[5mC]*eG*eG*eT*eG; antisense) [compound 301014]	88	88	75	90	96	98
301021 (eG*eG*eT*e[5mC]*e[5mC]*dA*dT*d[5mC]*dG*d[5mC]*d[5mC]*dA*dG*d[5mC]*dT*eG*e[5mC]*eG*eG*eT; antisense) [compound 301021]	67	89				
301028 (eG*eG*e[5mC]*eT*e[5mC]*dA*d[5mC]*dT*dG*dT*dA*dT*dG*dG*dT*eT*eT*eT*eA*eT; antisense) [compound 301028]	85	93	70	79	85	92
301029 (eG*eG*e[5mC]*eT*eG*dG*d[5mC]*dT*d[5mC]*dA*d[5mC]*dT*dG*dT*dA*eT*eG*eG*eT*eT; antisense) [compound 301029]	77	90	54	67	79	85
301030 (eA*eG*eG*e[5mC]*eT*dG*dG*d[5mC]*dT*d[5mC]*dA*d[5mC]*dT*dG*dT*eA*eT*eG*eG*eT; antisense) [compound 301030]	70	90	64	75	87	92
301031 (eA*eA*eG*eG*e[5mC]*dT*dG*dG*d[5mC]*dT*d[5mC]*dA*d[5mC]*dT*dG*eT*eA*eT*eG*eG; antisense) [compound 301031]	73	90	61	82	92	96
301037 (e[5mC]*eA*eG*e[5mC]*eT*dT*dT*dG*dG*dT*dG*d[5mC]*dA*dG*dG*eT*e[5mC]*e[5mC]*eA*eG; antisense) [compound 301037]	80	90	73	85	89	96
301038 (eG*e[5mC]*e[5mC]*eA*eG*d[5mC]*dT*dT*dT*dG*dG*dT*dG*d[5mC]*dA*eG*eG*eT*e[5mC]*e[5mC]; antisense) [compound 301038]	84	86				
301045 (eA*eG*e[5mC]*eA*eA*dA*dA*dT*dA*dA*d[5mC]*dT*d[5mC]*dA*dG*eA*eT*e[5mC]*e[5mC]*eT; antisense) [compound 301045]	77	90	77	86	94	98
